We go through two compounds from article PMC5823845 (Bioorganic & Medicinal Chemistry, 2018).

One series deals with HEPG2 cells. The series is described as follows: High-content cell toxicity screen in HEPG2 cells. The series is classed as cell-based. Conditions: concentrations between 10 and 30 μM. The protocol:
Effect on the cell or mitochondrial viability markers in HepG2 cells were tested for compounds up to 50 μM. HepG2 cells were plated on 96-well tissue culture treated black walled clear bottomed polystyrene plates at 0:3 _ 104 cells in 100_L per well. After 24 hr the cells were dosed with the test compound at a range of concentrations (see Assay Summary for details). At the end of the incubation period, the cells were loaded with the relevant dye/antibody for each cell health marker. The plates were then scanned using an automated fluorescent cellular imager, ArrayScanr VTI (Thermo Scientific Cellomics).

A short description of series [1]: Intrinsic clearance in liver microsomes. The series is classed as in vitro ADME. Conditions: liver microsomes, 37 °C, NADPH, 45 min, mean of 5. The protocol: The reaction is terminated by the addition of methanol. Following centrifugation, the supernatant is analyzed on the LC-MS/MS. […] The data is the mean on 5 separate experiments.
The ln peak area ratio (compound peak area/internal standard peak area) is plotted against time and the gradient of the line determined.
(see Supplementary data file for details).

A short description of series [2]: Log D pH 7.4, octanol/buffer shake flask method.
Description: Briefly, octanol (pre-saturated with buffer) is added to the test compound and sonicated. Buffer at pH 7.4 (presaturated with octanol) is then added to the octanol. […] The system is mixed to allow distribution of the compound between the two phases.
Log D = Log (Coct / Caq ). Where: Coct = Concentration in octanol sample (corrected for dilution) and Caq = Concentration in aqueous sample (corrected for dilution)
The conditions of series [3]: in the absence of S9; cited from earlier work.
Another series concerns the target T1, Cyp 450 3A4 (Homo sapiens, UniProt P08684).
T1 construct: tissue Cyprotex (CRO); host or cells: human liver microsomes
Description: Cytochrome P450 inhibition in human liver microsomes. In kind it is in vitro ADME. Conditions: at 25 μM. How it is done: (§1) The five main cytochrome P450 isoforms (CYP1A, CYP2C9, CYP2C19, CYP2D6 and CYP3A4) were investigated in the P450 inhibition assay. […] At the end of the incubation, the formation of the metabolite was monitored by LC-MS/MS (or fluorescence in the case of CYP1A) at each of the test compound concentrations.

The target of a further series is T2, Cyp 450 2D6 (Homo sapiens, UniProt P10635).
T2 construct: tissue Cyprotex (CRO); host or cells: human liver microsomes
T2 sequence (P10635 whole entry): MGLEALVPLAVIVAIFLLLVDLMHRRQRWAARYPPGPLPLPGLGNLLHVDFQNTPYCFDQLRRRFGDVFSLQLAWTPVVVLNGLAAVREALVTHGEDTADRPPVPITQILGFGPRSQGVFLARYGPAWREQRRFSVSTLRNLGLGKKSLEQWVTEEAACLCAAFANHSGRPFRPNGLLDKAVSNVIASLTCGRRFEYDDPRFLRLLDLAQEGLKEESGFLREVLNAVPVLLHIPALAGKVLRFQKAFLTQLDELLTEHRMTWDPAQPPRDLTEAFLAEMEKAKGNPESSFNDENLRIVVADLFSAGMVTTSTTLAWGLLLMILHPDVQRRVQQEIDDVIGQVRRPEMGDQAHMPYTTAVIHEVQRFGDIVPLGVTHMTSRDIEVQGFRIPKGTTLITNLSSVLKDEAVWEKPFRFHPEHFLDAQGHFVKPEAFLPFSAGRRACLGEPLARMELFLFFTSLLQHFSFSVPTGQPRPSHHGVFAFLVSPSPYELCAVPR
Described as above. Conditions: at 25 μM. In kind it is in vitro ADME. The protocol: as §1

For a further series, the target named is T3, Cyp 450 2C9 (Homo sapiens, UniProt P11712).
T3 construct: tissue Cyprotex (CRO); host or cells: human liver microsomes
T3 sequence (P11712 whole entry): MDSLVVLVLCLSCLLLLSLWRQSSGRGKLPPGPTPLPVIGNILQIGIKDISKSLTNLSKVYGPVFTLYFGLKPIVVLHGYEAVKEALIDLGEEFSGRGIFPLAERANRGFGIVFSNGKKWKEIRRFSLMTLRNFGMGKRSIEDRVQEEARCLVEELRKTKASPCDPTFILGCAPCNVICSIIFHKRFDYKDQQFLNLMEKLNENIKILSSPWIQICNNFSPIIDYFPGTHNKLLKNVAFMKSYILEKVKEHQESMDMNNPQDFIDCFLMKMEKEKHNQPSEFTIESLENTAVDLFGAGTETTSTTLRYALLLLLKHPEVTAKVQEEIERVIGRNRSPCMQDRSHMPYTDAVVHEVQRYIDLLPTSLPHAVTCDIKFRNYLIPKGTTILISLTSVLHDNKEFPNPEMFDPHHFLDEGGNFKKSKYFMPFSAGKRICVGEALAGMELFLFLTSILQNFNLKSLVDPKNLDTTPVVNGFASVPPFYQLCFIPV
The description is as above. The conditions noted are these: at 25 μM. The series is classed as in vitro ADME. How it is done:
as §1

The target in a further series is T4, Cyp 450 1A2 (Homo sapiens, UniProt P05177).
T4 construct: tissue Cyprotex (CRO); host or cells: human liver microsomes
T4 sequence (P05177 1-516): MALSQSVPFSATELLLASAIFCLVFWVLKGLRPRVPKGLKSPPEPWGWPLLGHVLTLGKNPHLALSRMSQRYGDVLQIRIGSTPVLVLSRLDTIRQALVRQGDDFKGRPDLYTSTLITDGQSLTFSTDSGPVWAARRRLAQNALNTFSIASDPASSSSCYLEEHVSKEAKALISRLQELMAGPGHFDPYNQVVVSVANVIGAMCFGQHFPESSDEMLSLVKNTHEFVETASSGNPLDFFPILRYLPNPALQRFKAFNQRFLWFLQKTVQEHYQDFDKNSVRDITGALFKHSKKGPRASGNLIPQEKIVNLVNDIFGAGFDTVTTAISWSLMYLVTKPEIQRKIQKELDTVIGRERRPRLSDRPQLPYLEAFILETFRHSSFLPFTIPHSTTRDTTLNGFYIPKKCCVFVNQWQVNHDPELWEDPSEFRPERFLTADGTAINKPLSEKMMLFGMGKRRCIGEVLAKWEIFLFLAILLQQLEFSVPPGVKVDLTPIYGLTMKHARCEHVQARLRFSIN
The series is described as above. In kind it is in vitro ADME. The conditions noted are these: at 25 μM. How it is done: as §1

A further series addresses T5, Cyp 450 2C19 (Homo sapiens, UniProt P33261).
T5 construct: tissue Cyprotex (CRO); host or cells: human liver microsomes
The description is as above. In kind it is in vitro ADME. Conditions: at 25 μM. How it is done: as §1

T1 sequence (P08684 whole entry): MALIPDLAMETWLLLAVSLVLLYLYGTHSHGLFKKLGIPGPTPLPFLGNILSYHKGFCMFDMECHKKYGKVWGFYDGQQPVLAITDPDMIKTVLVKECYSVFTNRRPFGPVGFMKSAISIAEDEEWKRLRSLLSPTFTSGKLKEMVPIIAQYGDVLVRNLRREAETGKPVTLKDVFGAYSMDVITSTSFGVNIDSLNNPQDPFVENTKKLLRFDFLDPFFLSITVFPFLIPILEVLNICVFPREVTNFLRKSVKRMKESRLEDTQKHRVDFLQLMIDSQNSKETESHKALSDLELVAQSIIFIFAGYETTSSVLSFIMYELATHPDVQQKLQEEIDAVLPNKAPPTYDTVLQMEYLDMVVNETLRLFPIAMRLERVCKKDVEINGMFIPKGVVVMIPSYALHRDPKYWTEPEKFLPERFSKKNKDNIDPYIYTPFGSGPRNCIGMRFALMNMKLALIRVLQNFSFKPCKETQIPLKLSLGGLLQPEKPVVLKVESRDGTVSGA
T5 sequence (P33261 whole entry): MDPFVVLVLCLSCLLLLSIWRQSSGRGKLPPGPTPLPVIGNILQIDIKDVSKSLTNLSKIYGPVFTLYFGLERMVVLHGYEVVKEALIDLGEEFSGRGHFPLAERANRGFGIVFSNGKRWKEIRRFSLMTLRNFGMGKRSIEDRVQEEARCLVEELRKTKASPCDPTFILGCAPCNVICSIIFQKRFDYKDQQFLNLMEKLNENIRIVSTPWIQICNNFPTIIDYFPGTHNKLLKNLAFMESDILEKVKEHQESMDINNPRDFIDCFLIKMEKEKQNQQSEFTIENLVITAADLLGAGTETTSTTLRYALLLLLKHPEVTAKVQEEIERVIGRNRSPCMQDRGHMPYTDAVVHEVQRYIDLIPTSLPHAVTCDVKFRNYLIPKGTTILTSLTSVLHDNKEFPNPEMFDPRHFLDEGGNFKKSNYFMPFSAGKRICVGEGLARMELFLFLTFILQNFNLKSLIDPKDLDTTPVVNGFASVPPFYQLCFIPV

Regarding `CC1(C)CCC(C)(C)c2cc(C(=O)Nc3ccc(C(=O)O)cc3)ccc21` [Compound 2], in the series on HEPG2 cells, the cell membrane permeability result is reported as “significant increase” and the mitochondrial membrane potential entry is given as “significant decrease”. Also, in series [1] (human microsomes), the intrinsic metabolic clearance (microsomal CLint) came out at 15.6 µL/min/mg. In series [2], this compound showed a logD of 2.8. Moreover, in [3], the mutagenicity in vitro result is reported as “mutagen”.
In the case of `CCOc1c(Cl)cc(C(=O)Nc2ccc(C(=O)O)cc2)cc1Cl` [Compound 5, 4-(3,5-dichloro-4-ethoxybenzamido)benzoic acid], the figures for the microsomal CLint in [1] (human microsomes) and in series [1] (mouse microsomes) were 18 µL/min/mg and 127 µL/min/mg, respectively. In addition, in [2], the logD is 1.7. Moreover, the “Cyp 3A4 liability” value at Cyp 450 3A4 is “inactive”. In addition, the “Cyp 2D6 liability” value at Cyp 450 2D6 was “inactive”. For the same compound, the “Cyp 2C9 liability” value at Cyp 450 2C9 is “inactive”. Besides, the Cyp1A liability result at Cyp 450 1A2 is “inactive”. Also, the “Cyp 2C19 liability” value at Cyp 450 2C19 was “inactive”.
